Measurements: PMC8969509 (Journal of Antimicrobial Chemotherapy, 2022)

Target: T1, Mtb topoisomerase I (Mycobacterium tuberculosis, UniProt P9WG49)
T1 construct: gene topA
Test: biochemical

T1 sequence (P9WG49 whole entry): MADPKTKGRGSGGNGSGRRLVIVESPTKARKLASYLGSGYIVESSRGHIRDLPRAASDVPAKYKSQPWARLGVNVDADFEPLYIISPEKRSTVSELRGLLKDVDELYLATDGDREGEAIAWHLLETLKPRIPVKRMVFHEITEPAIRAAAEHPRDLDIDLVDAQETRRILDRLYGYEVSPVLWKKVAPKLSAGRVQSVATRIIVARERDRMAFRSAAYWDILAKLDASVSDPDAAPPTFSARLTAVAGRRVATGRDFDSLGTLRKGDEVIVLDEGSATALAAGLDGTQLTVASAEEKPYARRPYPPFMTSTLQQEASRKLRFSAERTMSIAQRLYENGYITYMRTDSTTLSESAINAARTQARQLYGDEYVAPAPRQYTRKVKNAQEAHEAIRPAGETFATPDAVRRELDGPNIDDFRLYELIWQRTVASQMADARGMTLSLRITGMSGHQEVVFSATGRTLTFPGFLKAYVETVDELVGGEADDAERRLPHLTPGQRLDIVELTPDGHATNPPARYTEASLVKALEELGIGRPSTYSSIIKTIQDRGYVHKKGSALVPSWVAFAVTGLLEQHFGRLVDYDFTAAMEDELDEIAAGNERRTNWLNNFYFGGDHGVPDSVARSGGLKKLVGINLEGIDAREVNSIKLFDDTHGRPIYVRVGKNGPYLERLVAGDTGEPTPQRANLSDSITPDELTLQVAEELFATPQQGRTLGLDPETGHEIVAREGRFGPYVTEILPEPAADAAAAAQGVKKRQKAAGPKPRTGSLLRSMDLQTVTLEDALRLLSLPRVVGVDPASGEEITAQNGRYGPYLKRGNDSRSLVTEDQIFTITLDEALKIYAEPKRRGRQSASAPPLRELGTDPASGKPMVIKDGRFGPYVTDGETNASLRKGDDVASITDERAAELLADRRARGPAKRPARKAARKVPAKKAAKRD

COc1cc(NS(C)(=O)=O)ccc1Nc1c2ccccc2nc2ccccc12 [mAMSA]
IC50: 17.4 µM
